These results are taken from US10336732B2, “1-heterocyclyl isochromanyl compounds and analogs for treating CNS disorders” (Sunovion Pharmaceuticals Inc., priority 2015, dated 2019).

The target in one experiment is T1, 5-HT5a (Homo sapiens, UniProt P47898).
T1 construct: expressed in transfected cells; host or cells: HEK-293 cells
Briefly: In vitro radioligand binding assay, 5-HT5a, [3H]LSD. Particulars: human recombinant (HEK-293 cells). Here is the method: (§1) Certain compounds were tested by in vitro binding assays using standard procedures. […] These receptors and assays are well known to those skilled in the art, as exemplified by the following: Abramovitz, M. et al. (2000), Biochem. Biophys. Acta., 1483: 285-293 (EP4, IP (PGI2)); Aharony, D. et al. (1993), Mol. Pharmacol., 44: 356-363 (NK2); Ardati, A. et al. (1997), Mol. Pharmacol., 51: 816-824 (NOP (ORL1)); Bignon, E. et al. (1999), J. Pharmacol. Exp. Ther. 289: 742-751 (CCK1 (CCKA)); Bloomquist, B. T. et al. (1998), Biochem. Biophys. Res. Commun., 243: 474-479 (GAL2); Brockhaus, M. et al. (1990), Proc. Natl. Acad. Sci. U.S.A., 87: 3127-3131 (TNF-α); Brown, G. B. (1986), J. Neurosci., 6: 2064-2070 (Na+ channel (site 2)); Buchan, K. W. et al. (1994), Brit. J. Pharmacol., 112: 1251-1257 (ETA); Cesura, A. M. et al. (1990), Mol. Pharmacol., 37: 358-366 (MAO-A); Choi, D. S. et al. (1994), FEBS Lett., 352: 393-399 (5-HT2B); Clark, A. F. et al. (1996), Invest. Ophtalmol. Vis. […]

For the next experiment, the target named is T2, 5-HT transporter (Homo sapiens, UniProt P31645).
T2 construct: expressed in transfected cells; host or cells: CHO cells
Briefly: In vitro radioligand binding assay, 5-HT transporter, [3H]imipramine. The conditions noted are these: human recombinant (CHO cells). Here is the method:
as §1

T1 sequence (P47898 whole entry): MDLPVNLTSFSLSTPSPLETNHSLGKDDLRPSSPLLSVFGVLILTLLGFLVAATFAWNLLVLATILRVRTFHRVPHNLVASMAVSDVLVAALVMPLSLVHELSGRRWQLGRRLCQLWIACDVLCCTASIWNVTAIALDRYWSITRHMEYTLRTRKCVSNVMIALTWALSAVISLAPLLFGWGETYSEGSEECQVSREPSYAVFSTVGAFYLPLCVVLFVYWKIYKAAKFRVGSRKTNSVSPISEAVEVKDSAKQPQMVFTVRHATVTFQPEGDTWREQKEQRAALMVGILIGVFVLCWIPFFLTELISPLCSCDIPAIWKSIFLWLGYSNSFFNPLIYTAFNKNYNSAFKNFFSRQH
T2 sequence (P31645 whole entry): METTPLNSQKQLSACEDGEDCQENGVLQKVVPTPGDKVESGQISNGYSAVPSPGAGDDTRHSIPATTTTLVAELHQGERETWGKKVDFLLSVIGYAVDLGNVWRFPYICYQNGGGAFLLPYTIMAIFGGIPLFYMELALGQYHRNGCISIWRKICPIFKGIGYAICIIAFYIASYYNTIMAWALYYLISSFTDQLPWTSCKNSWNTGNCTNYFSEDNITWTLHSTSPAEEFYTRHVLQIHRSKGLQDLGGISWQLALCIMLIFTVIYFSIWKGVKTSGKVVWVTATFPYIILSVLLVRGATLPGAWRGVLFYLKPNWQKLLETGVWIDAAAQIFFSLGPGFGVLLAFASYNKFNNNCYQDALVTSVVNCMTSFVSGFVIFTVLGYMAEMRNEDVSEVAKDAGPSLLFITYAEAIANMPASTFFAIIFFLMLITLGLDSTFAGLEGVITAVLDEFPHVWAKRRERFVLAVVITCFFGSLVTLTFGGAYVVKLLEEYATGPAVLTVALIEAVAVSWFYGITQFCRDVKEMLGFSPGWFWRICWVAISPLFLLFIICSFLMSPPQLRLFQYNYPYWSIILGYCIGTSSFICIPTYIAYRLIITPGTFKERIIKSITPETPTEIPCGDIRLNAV

For the compound `Fc1cccc2c1[C@H]([C@@H]1CCN1)OCC2` [Compound I-83, (S)-2-((R)-8-fluoroisochroman-1-yl)azetidine], the “5HT5a percent inhibition of specific binding” value at 5-HT5a turned out to be 58%.
As for `Fc1ccc2c(c1)CCO[C@H]2[C@@H]1CCN1` [Compound I-90, (S)-2-((R)-6-fluoroisochroman-1-yl)azetidine], the “Sert percent inhibition of specific binding” value on 5-HT transporter was determined as 80%.
